Assay results published in article PMC5895699, “Catalytically active inclusion bodies of L-lysine decarboxylase from E. coli for 1,5-diaminopentane production” (Scientific Reports, 2018).

Target: T1, EcLDCc-CatIBs (EcLDCc-TDoT fusion; constitutive L-lysine decarboxylase from E. coli) (Escherichia coli, UniProt P52095)
T1 construct: gene ldcC; full-length EcLDCc with C-terminal 3xGGGS linker and TDoT coiled-coil tag (tetrabrachion, Staphylothermus marinus), pET28, E. coli BL21(DE3)
T1 sequence (P52095 1-713): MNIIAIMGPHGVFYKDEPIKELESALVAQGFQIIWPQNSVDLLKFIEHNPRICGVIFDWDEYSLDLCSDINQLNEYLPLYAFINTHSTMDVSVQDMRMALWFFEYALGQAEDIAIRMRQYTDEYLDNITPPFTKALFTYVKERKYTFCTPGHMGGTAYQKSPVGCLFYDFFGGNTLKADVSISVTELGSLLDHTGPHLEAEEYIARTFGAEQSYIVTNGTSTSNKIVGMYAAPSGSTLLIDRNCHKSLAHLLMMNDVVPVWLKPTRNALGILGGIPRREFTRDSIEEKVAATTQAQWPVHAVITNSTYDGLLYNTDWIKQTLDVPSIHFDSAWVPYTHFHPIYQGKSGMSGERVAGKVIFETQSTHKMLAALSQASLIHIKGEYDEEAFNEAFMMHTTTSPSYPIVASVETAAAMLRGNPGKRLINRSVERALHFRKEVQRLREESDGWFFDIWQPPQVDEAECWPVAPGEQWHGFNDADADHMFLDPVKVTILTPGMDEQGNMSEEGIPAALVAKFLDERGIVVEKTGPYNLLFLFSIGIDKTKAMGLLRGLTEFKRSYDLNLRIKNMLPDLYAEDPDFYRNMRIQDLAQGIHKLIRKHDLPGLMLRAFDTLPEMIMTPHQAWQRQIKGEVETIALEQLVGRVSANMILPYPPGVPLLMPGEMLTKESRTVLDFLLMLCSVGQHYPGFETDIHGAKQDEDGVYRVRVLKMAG
Assay: HPLC of […],5-diaminopentane formed, OPA derivatisation
Format: biochemical
Conditions: 50 mM KPi buffer, 10 mM L-lysine, 30 °C, pH 7-9 (general range; pH 9 differs); CatIB enzyme as prepared, not PLP-depleted

% activity increase at 0.1 mM PLP: 5–15%
SMILES: Cc1ncc(COP(=O)(O)O)c(C=O)c1O [pyridoxal-5′-phosphate]
